According to US6737383B1, “Herbicidal oxadiazolidines” (priority 1999, dated 2004):

How the values were obtained:
[1] = test system: rice; assay: Test B flood test rice; assay type: in vivo, Oryza sativa
Procedure, shortened: (§1)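 Read-out is a visual response score from 0 (no effect) to 10 (complete control), assigned by comparison with untreated controls. Treatment was applied at the 2-leaf stage, and plants stayed in the greenhouse for twelve to sixteen days before scoring.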

[2] = test system: wheat; assay: Test B pre/postemergence wheat; assay type: in vivo, Triticum aestivum
Procedure, shortened: (§2)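 Response is a visual 0-to-10 score relative to untreated plants, where 0 means no effect and 10 means complete control, taken twelve to sixteen days after application. Treatments went onto soil at planting and onto foliage of 1- to 4-leaf plants, using a surfactant-containing non-phytotoxic solvent.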

[3] = test system: giant foxtail; assay: Test B pre/postemergence giant foxtail; assay type: in vivo, Setaria faberii
Procedure, shortened: as §2

[4] = test system: cocklebur; assay: Test B pre/postemergence cocklebur; assay type: in vivo, Xanthium strumarium
Procedure, shortened: as §2

[5] = test system: pigweed; assay: Test B pre/postemergence pigweed; assay type: in vivo, Amaranthus retroflexus
Procedure, shortened: as §2

[6] = test system: duck salad; assay: Test B flood test duck salad; assay type: in vivo, Heteranthera limosa
Procedure, shortened: as §1

[7] = test system: wild oat; assay: Test B pre/postemergence wild oat; assay type: in vivo, Avena fatua
Procedure, shortened: as §2

[8] = test system: bamyardgrass; assay: Test B flood test barnyardgrass; assay type: in vivo, Echinochloa crus-galli
Procedure, shortened: as §1

[9] = test system: corn; assay: Test B pre/postemergence corn; assay type: in vivo, Zea mays
Procedure, shortened: as §2

[10] = test system: purple nutsedge; assay: Test B pre/postemergence purple nutsedge; assay type: in vivo, Cyperus rotundus
Procedure, shortened: as §2

[11] = test system: morningglory; assay: Test B pre/postemergence morningglory; assay type: in vivo, Ipomoea hederacea
Procedure, shortened: as §2

[12] = test system: crabgrass; assay: Test B pre/postemergence crabgrass; assay type: in vivo, Digitaria sanguinalis
Procedure, shortened: as §2

[13] = test system: smallflower flatsedge; assay: Test B flood test smallflower flatsedge; assay type: in vivo, Cyperus difformis
Procedure, shortened: as §1

[14] = test system: rape; assay: Test B pre/postemergence rape; assay type: in vivo, Brassica napus
Procedure, shortened: as §2

[15] = test system: sugar beet; assay: Test B pre/postemergence sugar beet; assay type: in vivo, Beta vulgaris
Procedure, shortened: as §2

[16] = test system: surinam grass; assay: Test B pre/postemergence surinam grass; assay type: in vivo, Brachiaria decumbens
Procedure, shortened: as §2

[17] = Pre-emergence, Rate 62 g/ha, scale 0 to 10, 0 is no effect, 10 is complete control
[18] = Rate 125 g/ha, Pre-emergence section (flood test species), scale 0 to 10, 0 no effect, 10 complete control
[19] = Rate 250 g/ha, Pre-emergence (flood test species), scale 0 to 10, 0 is no effect, 10 is complete control
[20] = Rate 500 g/ha, Pre-emergence section of Table B, 0 to 10 scale (0 no effect, 10 complete control)
[21] = Postemergence, Rate 62 g/ha, scale 0 to 10, 0 is no effect, 10 is complete control
[22] = Postemergence, Rate 125 g/ha, scale of 0 to 10 where 0 is no effect and 10 is complete control
[23] = Preemergence, Rate 125 g/ha, scale of 0 to 10 where 0 is no effect and 10 is complete control
[24] = Preemergence, Rate 250 g/ha, scale 0 (no effect) to 10 (complete control)
[25] = Rate 62 g/ha, Preemergence, scale 0 to 10
[26] = Rate 250 g/ha, Postemergence, scale 0 to 10, 0 is no effect, 10 is complete control
[27] = Rate 500 g/ha, Postemergence, scale 0 to 10, 0 is no effect, 10 is complete control
[28] = Rate 500 g/ha, Preemergence, scale 0 to 10 (0 no effect, 10 complete control)

CC(C)N(C(=O)n1oc(=O)n(CC2=NOCCO2)c1=O)c1ccc(Cl)cc1 [Compound 740]
2: Plant response rating, Giant foxtail [3, 21] | Redroot pigweed plant response rating [5, 22] | Wild oats plant response rating [7, 24] | Plant response rating, Morningglory [11, 21] | Sugarbeets plant response rating [15, 26] | Sugarbeets plant response rating [15, 27] | B. signalgrass plant response rating [16, 27]
7: Giant foxtail plant response rating [3, 22] | Morningglory plant response rating [11, 27]
8: Giant foxtail plant response rating [3, 26] | Redroot pigweed plant response rating [5, 27]
6: Wild oats plant response rating [7, 28]
5: Rape plant response rating [14, 24] | Sugarbeets plant response rating [15, 28]
0: Rice plant response rating [1, 17] | Rice plant response rating [1, 18] | Rice plant response rating [1, 19] | Rice plant response rating [1, 20] | Plant response rating, Wheat [2, 21] | Wheat plant response rating [2, 22] | Plant response rating, Wheat [2, 23] | Wheat plant response rating [2, 24] | Wheat plant response rating [2, 25] | Wheat plant response rating [2, 26] | Plant response rating, Cocklebur [4, 21] | Cocklebur plant response rating [4, 22] | Plant response rating, Cocklebur [4, 23] | Cocklebur plant response rating [4, 24] | Cocklebur plant response rating [4, 25] | Cocklebur plant response rating [4, 28] | Plant response rating, Redroot pigweed [5, 21] | Ducksalad plant response rating [6, 17] | Ducksalad plant response rating [6, 18] | Ducksalad plant response rating [6, 19] | Ducksalad plant response rating [6, 20] | Plant response rating, Wild oats [7, 21] | Wild oats plant response rating [7, 22] | Plant response rating, Wild oats [7, 23] | Wild oats plant response rating [7, 25] | Wild oats plant response rating [7, 26] | Wild oats plant response rating [7, 27] | Barnyardgrass plant response rating [8, 17] | Barnyardgrass plant response rating [8, 18] | Barnyardgrass plant response rating [8, 19] | Barnyardgrass plant response rating [8, 20] | Plant response rating, Corn [9, 21] | Corn plant response rating [9, 22] | Plant response rating, Corn [9, 23] | Corn plant response rating [9, 24] | Corn plant response rating [9, 25] | Corn plant response rating [9, 26] | Corn plant response rating [9, 27] | Corn plant response rating [9, 28] | Plant response rating, Nutsedge [10, 21] | Nutsedge plant response rating [10, 22] | Plant response rating, Nutsedge [10, 23] | Nutsedge plant response rating [10, 24] | Nutsedge plant response rating [10, 25] | Nutsedge plant response rating [10, 26] | Nutsedge plant response rating [10, 27] | Nutsedge plant response rating [10, 28] | Plant response rating, Morningglory [11, 23] | Morningglory plant response rating [11, 24] | Morningglory plant response rating [11, 25] | Morningglory plant response rating [11, 28] | Plant response rating, Crabgrass [12, 21] | Crabgrass plant response rating [12, 22] | S. Flatsedge plant response rating [13, 17] | S. Flatsedge plant response rating [13, 18] | S. Flatsedge plant response rating [13, 19] | S. Flatsedge plant response rating [13, 20] | Plant response rating, Rape [14, 21] | Rape plant response rating [14, 22] | Rape plant response rating [14, 25] | Rape plant response rating [14, 26] | Rape plant response rating [14, 27] | Plant response rating, Sugarbeets [15, 21] | Sugarbeets plant response rating [15, 22] | Sugarbeets plant response rating [15, 25] | Plant response rating, B. signalgrass [16, 21] | B. signalgrass plant response rating [16, 22] | B. signalgrass plant response rating [16, 26]
9: Plant response rating, Giant foxtail [3, 23] | Giant foxtail plant response rating [3, 24] | Giant foxtail plant response rating [3, 27] | Plant response rating, Redroot pigweed [5, 23] | Redroot pigweed plant response rating [5, 24] | Crabgrass plant response rating [12, 24] | Crabgrass plant response rating [12, 26] | Crabgrass plant response rating [12, 27] | Crabgrass plant response rating [12, 28]
10: Giant foxtail plant response rating [3, 28] | Redroot pigweed plant response rating [5, 28]
4: Wheat plant response rating [2, 27] | Giant foxtail plant response rating [3, 25] | Redroot pigweed plant response rating [5, 26] | Plant response rating, Crabgrass [12, 23] | Crabgrass plant response rating [12, 25]
3: Wheat plant response rating [2, 28] | Cocklebur plant response rating [4, 26] | Cocklebur plant response rating [4, 27] | Redroot pigweed plant response rating [5, 25] | Morningglory plant response rating [11, 22] | Morningglory plant response rating [11, 26] | Plant response rating, Rape [14, 23] | Sugarbeets plant response rating [15, 24]

CC(C)N(C(=O)n1oc(=O)n(CCN(C)C(=O)c2ccccc2)c1=O)c1ccc(F)cc1 [Compound 741]
10: Giant foxtail plant response rating [3, 28] | Crabgrass plant response rating [12, 28]
2: Plant response rating, Giant foxtail [3, 23] | B. signalgrass plant response rating [16, 24] | B. signalgrass plant response rating [16, 28]
5: Morningglory plant response rating [11, 26] | Plant response rating, Crabgrass [12, 23] | Crabgrass plant response rating [12, 24] | Crabgrass plant response rating [12, 25]
3: Wheat plant response rating [2, 27] | Giant foxtail plant response rating [3, 26] | Plant response rating, Redroot pigweed [5, 21] | Wild oats plant response rating [7, 26] | Morningglory plant response rating [11, 27]
8: S. Flatsedge plant response rating [13, 20]
9: Giant foxtail plant response rating [3, 24] | Plant response rating, Crabgrass [12, 21] | Crabgrass plant response rating [12, 26]
0: Rice plant response rating [1, 17] | Rice plant response rating [1, 18] | Rice plant response rating [1, 19] | Rice plant response rating [1, 20] | Plant response rating, Wheat [2, 21] | Wheat plant response rating [2, 22] | Plant response rating, Wheat [2, 23] | Wheat plant response rating [2, 24] | Wheat plant response rating [2, 25] | Wheat plant response rating [2, 26] | Plant response rating, Giant foxtail [3, 21] | Giant foxtail plant response rating [3, 22] | Giant foxtail plant response rating [3, 25] | Plant response rating, Cocklebur [4, 21] | Cocklebur plant response rating [4, 22] | Plant response rating, Cocklebur [4, 23] | Cocklebur plant response rating [4, 24] | Cocklebur plant response rating [4, 25] | Cocklebur plant response rating [4, 26] | Cocklebur plant response rating [4, 27] | Plant response rating, Redroot pigweed [5, 23] | Redroot pigweed plant response rating [5, 24] | Redroot pigweed plant response rating [5, 25] | Ducksalad plant response rating [6, 17] | Ducksalad plant response rating [6, 18] | Ducksalad plant response rating [6, 19] | Ducksalad plant response rating [6, 20] | Plant response rating, Wild oats [7, 21] | Wild oats plant response rating [7, 22] | Plant response rating, Wild oats [7, 23] | Wild oats plant response rating [7, 24] | Wild oats plant response rating [7, 25] | Barnyardgrass plant response rating [8, 17] | Barnyardgrass plant response rating [8, 18] | Barnyardgrass plant response rating [8, 19] | Barnyardgrass plant response rating [8, 20] | Plant response rating, Corn [9, 21] | Corn plant response rating [9, 22] | Plant response rating, Corn [9, 23] | Corn plant response rating [9, 24] | Corn plant response rating [9, 25] | Corn plant response rating [9, 26] | Corn plant response rating [9, 27] | Corn plant response rating [9, 28] | Plant response rating, Nutsedge [10, 21] | Nutsedge plant response rating [10, 22] | Plant response rating, Nutsedge [10, 23] | Nutsedge plant response rating [10, 24] | Nutsedge plant response rating [10, 25] | Nutsedge plant response rating [10, 26] | Nutsedge plant response rating [10, 27] | Nutsedge plant response rating [10, 28] | Plant response rating, Morningglory [11, 23] | Morningglory plant response rating [11, 24] | Morningglory plant response rating [11, 25] | Morningglory plant response rating [11, 28] | S. Flatsedge plant response rating [13, 17] | S. Flatsedge plant response rating [13, 18] | S. Flatsedge plant response rating [13, 19] | Plant response rating, Rape [14, 21] | Rape plant response rating [14, 22] | Plant response rating, Rape [14, 23] | Rape plant response rating [14, 24] | Rape plant response rating [14, 25] | Rape plant response rating [14, 26] | Rape plant response rating [14, 27] | Rape plant response rating [14, 28] | Plant response rating, Sugarbeets [15, 21] | Sugarbeets plant response rating [15, 22] | Plant response rating, Sugarbeets [15, 23] | Sugarbeets plant response rating [15, 24] | Sugarbeets plant response rating [15, 25] | Plant response rating, B. signalgrass [16, 21] | B. signalgrass plant response rating [16, 22] | B. signalgrass plant response rating ([16]; Preemergence, Rate 62 g/ha, scale of 0 to 10 where 0 is no effect and 10 is complete control) | Plant response rating, B. signalgrass [16, 23]
4: Wheat plant response rating [2, 28] | Giant foxtail plant response rating [3, 27] | Sugarbeets plant response rating [15, 26] | Sugarbeets plant response rating [15, 27] | Sugarbeets plant response rating [15, 28] | B. signalgrass plant response rating [16, 26]
1: Morningglory plant response rating [11, 22]
7: Redroot pigweed plant response rating [5, 22] | Redroot pigweed plant response rating [5, 26] | Redroot pigweed plant response rating [5, 27] | Redroot pigweed plant response rating [5, 28] | Wild oats plant response rating [7, 28]
